From patent US20260000496A1, “MATERIALS AND METHODS FOR DRUG-INDUCED GINGIVAL OVERGROWTH” (Optimed Technology, Inc., priority 2019, published 2026)

System: TLR4
Assay: FACS of surface TLR4 on oral keratinocytes
Assay type: cell-based, human
Conditions: LPS (10 μg/ml), Phe (10 μg/ml), different concentration of folic acid, 24 hours
Method: Flow cytometry. NOKSI cells were seeded in 100 mm plates with a density of 1×10^6 cells per plate. Cells were treated with drugs, LPS, and folic acid alone or in combination. After NOKSI were detached using Corning Cell Lifter (Corning) and 10 mM EDTA in PBS, the cells were washed with FACS buffer (PBS containing 1% BSA [Sigma] and 2 mM EDTA). Cells were stained by immunofluorescence for CD282 (TLR2) and CD284 (TLR4). Fluorescent labeled antibodies at a dilution of 1:1000 in staining buffer with 2% FBS in PBS were added and incubated for 30 min in dark on ice. Cells were centrifuged and washed thrice in staining buffer and passed through a 70 μm cell strainer before data acquisition. Data analysis was performed using FlowJo (TreeStar, Ashland, OR, USA). All incubations were performed on ice.
Oral Keratinocytes Cells were treated with only LPS (10 μg/ml) for 24 hours. […] Cells were treated with LPS (10 μg/ml) and Phe (10 μg/ml) for 24 hours. […] Cells were treated with LPS (10 μg/ml), Phe (10 μg/ml), and FA ([…]) for 24 hours. […] FIG. 16.

## Nc1nc2ncc(CNc3ccc(C(=O)N[C@@H](CCC(=O)O)C(=O)O)cc3)nc2c(=O)[nH]1 [folic acid]
  TLR4 receptor on the cell surface: do not alter
